Laboratory results: publication PMC9998502, “Functional selectivity of EM-2 analogs at the mu-opioid receptor” (Frontiers in Pharmacology, 2023)
Read-outs that look alike come from different tables or passages of the source. Marks after values point to notes of the source that are not given here. Non-standard residues stand in square brackets, D forms with d. Residues, ends and D or L forms follow the SMILES beside them. d(β3hA) = C[C@@H](N)CC(=O)O

What was measured:
[1] = Enzymatic degradation in rat brain homogenate; format: in vitro ADME; conditions: for 100 x k, rate constant of degradation: up to 60 min; for half-life at 0.25 mM: ln2/k, read-out: t1/2, degradation half-life
Method: Enzymatic degradation of EM-2 and the analogs was performed measuring their hydrolysis rates in the presence of rat brain homogenate. The homogenate was prepared prior to the experiment. Briefly, rat brains were homogenized in 20 volumes of Tris–HCl (50 mM, pH 7.4) using a Polytron and the obtained aliquots were stored at −80°C. In the experiment, aliquotes of brain homogenate (100 μL, 10 mg protein/mL) were incubated with 100 µL of a peptide (0.5 mM) over 0, 7.5; 15, 22.5; 30, and 60 min at 37°C, in a final volume of 200 µL. After the incubation the degradation reaction was stopped by placing the tube on ice and acidifying the content with 20 µL of HCl (1 M). The aliquots were centrifuged at 20,000 g for 10 min at 4°C. The supernatants were collected and filtered using Millex-GV syringe filters (Millipore). Then the analysis by HPLC on a Vydac C18 column (5 μm, 4.6 × 250 mm), using the solvent system of 0.1% TFA in water (A) and 80% acetonitrile in water containing 0.1% TFA (B) and a linear gradient of 0%–100% B over 25 min, was performed. Three independent experiments for each assay were carried out in duplicate. The rate constants of degradation (k) were obtained by the least square linear regression analysis of logarithmic peak areas [ln (A/AD)], where A—amount of remained peptide, AD—initial amount of peptide versus time. Degradation half-lives (t1/2) were calculated from the rate constants as ln2/k.

[2] = target: T1, human recombinant mu opioid receptor (Homo sapiens, UniProt P35372); experiment: Radioligand binding, [3H]DAMGO displacement, CHO cell membranes
T1 construct: purchased; host or cells: CHO cells (membranes)

[3] = target: mu receptor-G protein interaction (Homo sapiens, UniProt P35372); experiment: BRET mu-G protein interaction assay (membranes of SH-SY5Y cells, mu-RLuc/Gβ1-RGFP)
Method: (§1) SH-SY5Y cells stably co-expressing the fusoproteins mu-RLuc and Gβ1-RGFP or mu-RLuc and β-arrestin 2-RGFP were grown in DMEM/F12 (1:1) medium supplemented with 10% FBS, 2 mM L-Glutamine, 100 μg/mL hygromycin B, 400 μg/mL G418, 100 units/mL penicillin G, 100 μg/mL streptomycin and 1 μg/mL Fungizone at 37°C in a humidified atmosphere with of 5% CO2.
Total protein in membrane preparations was determined by colorimetric method with the Quantum Protein-BCA kit (EuroClone, Pero (MI), IT) and measured using the multiplate reader Victor Nivo (PerkinElmer, Walthman, MA, United States). White opaque 96 wells microplates (PerkinElmer, Walthman, MA, United States) were used to carry out BRET assays. Cell membranes were thawed and resuspended in PBS supplemented with 0.02% BSA before the assay, and an amount of 5 μg of total protein was dispensed in each 96 well. All experiments were carried out at room temperature.
(§2) In agonism experiments, ligands were added and incubated for 5 min before microplate reading. […] BRET ratios were computed as follow: RGFPCPS/RLucCPSligand−RGFPCPS/RLucCPSvehicle
(§3) Concentration-response curves to agonists were fitted to the four-parameter logistic non-linear regression model as follows: Effect=Basal+Emax−Basal/1+10^LogEC50−Logligand×HillSlope

delta-opioid receptor [4] = target: T2, delta-opioid receptor (Homo sapiens, UniProt P41143); experiment: Calcium mobilization assay, CHO delta cells expressing GαqG66Di5; format: cell-based; set-up: expressed in transfected cells; host or cells: CHO cells co-expressing GαqG66Di5; conditions: inactive = inactive up to 10 µM; for Delta pEC50 (CL95%): calcium mobilization; for Delta α± SEM: intrinsic activity, Emax ratio to standard agonist DPDPE
[5] = target: mu receptor-β-arrestin 2 interaction (Homo sapiens, UniProt P35372); experiment: BRET mu-β-arrestin 2 interaction assay (living SH-SY5Y cells, mu-RLuc/β-arrestin 2-RGFP), agonism
Method: as §1
Mu- β-arrestin 2 interaction—Living SH-SY5Y cells expressing mu-RLuc and β-arrestin 2-RGFP were seeded at a cell density of 100,000 cells/well 24 h prior to the test. On the day of the experiment, medium was discarded, and cells were washed with PBS supplemented with 0.5 mM MgCl2, 0.9 mM CaCl2. Cells were subsequently incubated with 2 μM Prolume Purple Coelenterazine (NanoLight Technology, White Mountain, AZ; United States) for 10 min before bioluminescence reading.
as §2, §3

[6] = n-Octanol/water partition coefficient (log P); format: physicochemical; conditions: n-octanol / 0.05 M HEPES buffer in 0.1 M NaCl, pH 7.4
Method: Determination of log P was performed according to the method described by ([Liu et al., 2006]). Peptides were dissolved in 0.05 M HEPES buffer in 0.1 M NaCl, pH 7.4, then an equal volume of n-octanol was added and mixtures were vortexed for 2 min. Samples were centrifuged at 4,000 rpm for 1 min. After separation, aqueous and octanol phases were used to quantify peptide content by RP-HPLC.
Octanol phase was lyophilized and reconstituted in 80% acetonitrile in water containing 0.1% TFA before RP-HPLC. All n-octanol/buffer distribution studies were performed in triplicate.

delta-opioid receptor [7] = target: T2, delta-opioid receptor; experiment: Radioligand binding, [3H]deltorphin-2 displacement, CHO cell membranes; set-up: purchased; host or cells: CHO cells (membranes)
human mu receptor = target: T3, human mu receptor (Homo sapiens, UniProt P35372); experiment: Calcium mobilization assay, CHO mu cells expressing Gαqi5; format: cell-based; conditions: for mu α±SEM: intrinsic activity, Emax ratio to standard agonist EM-2
T3 construct: expressed in transfected cells; host or cells: CHO cells stably co-expressing Gαqi5

mu receptor = experiment: Bias factor, mu-G protein vs mu-β-arrestin 2 (BRET), EM-2 as standard ligand; conditions: log10 units, towards G protein
[8] = target: T4, human recombinant kappa opioid receptor (Homo sapiens, UniProt P41145); experiment: Radioligand binding, [3H]U-69593 displacement, CHO cell membranes
T4 construct: purchased; host or cells: CHO cells (membranes)

human kappa receptor = target: T5, human kappa receptor (Homo sapiens, UniProt P41145); experiment: Calcium mobilization assay, CHO kappa cells expressing Gαqi5; format: cell-based; conditions: inactive = inactive up to 10 µM; for Kappa pEC50 (CL95%): calcium mobilization; for Kappa α± SEM: intrinsic activity, Emax ratio to standard agonist dynorphin A
T5 construct: expressed in transfected cells; host or cells: CHO cells stably co-expressing Gαqi5

[9] = rat, pH 7.4, rat brain homogenate, 37°C
[10] = inactive = inactive up to 10 µM
[11] = [3H]DAMGO, n ≥ 3, read-out: Ki ± SEM, mu
[12] = [3H]deltorphin-2, n ≥ 3, read-out: Ki ± SEM, Delta
[13] = calcium mobilization, inactive = inactive up to 10 µM, read-out: mu pEC50 (CL95%) (converted)

T2 sequence (P41143 whole entry): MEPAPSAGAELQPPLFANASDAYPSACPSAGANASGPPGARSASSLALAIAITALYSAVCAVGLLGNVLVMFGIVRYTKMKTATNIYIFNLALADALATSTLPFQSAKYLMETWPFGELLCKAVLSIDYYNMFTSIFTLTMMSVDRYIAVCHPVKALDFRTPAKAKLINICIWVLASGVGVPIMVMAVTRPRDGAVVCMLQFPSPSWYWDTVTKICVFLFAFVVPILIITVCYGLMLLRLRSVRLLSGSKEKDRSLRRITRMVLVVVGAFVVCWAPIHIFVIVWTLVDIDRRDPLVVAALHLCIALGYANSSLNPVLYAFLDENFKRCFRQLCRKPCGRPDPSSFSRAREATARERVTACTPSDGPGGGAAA
Chain of mu receptor-G protein interaction (P62871 whole entry): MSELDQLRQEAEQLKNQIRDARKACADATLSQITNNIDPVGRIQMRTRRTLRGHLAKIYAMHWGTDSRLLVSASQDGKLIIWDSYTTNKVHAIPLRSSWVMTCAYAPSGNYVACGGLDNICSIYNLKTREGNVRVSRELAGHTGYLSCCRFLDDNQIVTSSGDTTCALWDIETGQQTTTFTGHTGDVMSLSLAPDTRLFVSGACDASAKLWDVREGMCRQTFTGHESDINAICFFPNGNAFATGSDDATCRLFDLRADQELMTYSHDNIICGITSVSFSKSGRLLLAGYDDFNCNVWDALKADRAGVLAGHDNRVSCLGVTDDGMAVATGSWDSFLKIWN
Chain of mu receptor-G protein interaction (P35372 whole entry): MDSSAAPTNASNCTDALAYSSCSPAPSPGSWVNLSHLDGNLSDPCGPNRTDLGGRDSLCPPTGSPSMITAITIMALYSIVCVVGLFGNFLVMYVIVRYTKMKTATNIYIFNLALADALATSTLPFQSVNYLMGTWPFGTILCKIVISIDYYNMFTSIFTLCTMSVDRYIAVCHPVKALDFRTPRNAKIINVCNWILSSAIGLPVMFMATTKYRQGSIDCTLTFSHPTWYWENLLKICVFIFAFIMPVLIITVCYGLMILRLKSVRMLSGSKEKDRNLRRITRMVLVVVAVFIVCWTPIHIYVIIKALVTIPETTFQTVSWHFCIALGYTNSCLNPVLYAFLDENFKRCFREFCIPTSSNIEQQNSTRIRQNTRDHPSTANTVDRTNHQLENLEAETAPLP
T1 sequence (P35372 whole entry): as above
Chain of mu receptor-β-arrestin 2 interaction (P35372 whole entry): as above
T3 sequence (P35372 whole entry): as above
T4 sequence (P41145 whole entry): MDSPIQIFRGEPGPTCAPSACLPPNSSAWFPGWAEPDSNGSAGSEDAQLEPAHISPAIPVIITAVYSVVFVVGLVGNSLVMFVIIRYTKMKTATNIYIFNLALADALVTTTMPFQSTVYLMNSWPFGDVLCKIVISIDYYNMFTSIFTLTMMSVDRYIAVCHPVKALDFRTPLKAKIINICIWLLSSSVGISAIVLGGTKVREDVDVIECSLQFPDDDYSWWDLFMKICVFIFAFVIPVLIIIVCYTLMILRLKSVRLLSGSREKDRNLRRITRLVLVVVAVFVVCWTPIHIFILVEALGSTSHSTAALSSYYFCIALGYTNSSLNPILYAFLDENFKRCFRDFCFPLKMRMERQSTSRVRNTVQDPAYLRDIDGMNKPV
T5 sequence (P41145 whole entry): as above

| Structure (SMILES) | 100 x k, rate constant of degradation ([1]; 37°C) [per min] | half-life at 0.25 mM [1, 9] [h] | Ki [2] [nM] | EC50 [3] [nM] | Delta pEC50 (CL95%) (delta-opioid receptor [4]) | Delta α± SEM (delta-opioid receptor [4]) | EC50 [5] [nM] | logD [6] | Ki (delta-opioid receptor [7]) [nM] | EC50 (human mu receptor) [nM] | mu α±SEM (human mu receptor; [10]) | Bias factor (CL95%) (mu receptor) | Ki [8] [nM] | Kappa pEC50 (CL95%) (human kappa receptor) | Kappa α± SEM (human kappa receptor) | further results |
| --- | --- | --- | --- | --- | --- | --- | --- | --- | --- | --- | --- | --- | --- | --- | --- | --- |
| Cc1cc(O)cc(C)c1C[C@H](N)C(=O)N1CCC[C@H]1C(=O)N[C@@H](Cc1ccccc1)C(=O)N[C@@H](Cc1ccccc1)C(N)=O [analog 1, Dmt-Pro-Phe-Phe-NH2] | 3.31 ± 0.12 | 0.347 ± 0.02 | 0.54 ± 0.03 | 3.09 | inactive | inactive | 11.7 | 2.16 | 560 ± 41 | 2.51 | 0.85 ± 0.02 | 0.48 (0.34–0.62) | – | – | – | fold higher potency than EM-2 (human mu receptor; calcium mobilization, mu): 3 fold |
| NC(=O)[C@H](Cc1ccccc1)NC(=O)[C@H](Cc1ccccc1)NC(=O)[C@@H]1CCCN(C(=O)[C@@H](N)Cc2ccc(O)cc2)C1 [analog 4, Tyr-(R)-Nip-Phe-Phe-NH2] | 1.05 ± 0.08 | – | – | 11.2 | inactive | inactive | 43.7 | 1.68 | – | – | 0.99 ± 0.04 | −0.02 (−0.04-0.00) | > 1000 | inactive | inactive | half-life at 0.25 mM ([1]; pH 7.4, 37°C): 1.09 ± 0.04 h; Ki [2, 11]: 0.85 ± 0.17 nM; β-Arrestin 2 Emax±sem [5]: 1.30 ± 0.03; Ki (delta-opioid receptor [7]; [12]): > 1000 nM; EC50 (human mu receptor; [13]): 2.69 nM |
| Cc1cc(O)cc(C)c1C[C@H](N)C(=O)N1CCC[C@@H](C(=O)N[C@@H](Cc2ccccc2)C(=O)N[C@@H](Cc2ccccc2)C(N)=O)C1 [analog 5, Dmt-(R)-Nip-Phe-Phe-NH2] | 0.77 ± 0.06 | 1.49 ± 0.05 | 0.14 ± 0.06 | 1.1 | inactive | inactive | 3.63 | 1.8 | 589 ± 28 | 0.316 | 1.00 ± 0.02 | −0.08 (−0.25-0.10) | 567 ± 39 | inactive | inactive | – |
| C[C@H](CNC(=O)[C@@H](N)Cc1ccc(O)cc1)C(=O)N[C@@H](Cc1ccccc1)C(=O)N[C@@H](Cc1ccccc1)C(N)=O [analog 6, Tyr-(R)-β ^ 2 -Ala-Phe-Phe-NH2] | 1.03 ± 0.07 | – | – | 417 | inactive | inactive | 14100 | 1.75 | – | – | 0.88 ± 0.06 | 1.35 (1.15–1.55) | > 1000 | inactive | inactive | half-life at 0.25 mM ([1]; pH 7.4, 37°C): 1.11 ± 0.045 h; Ki [2, 11]: 46.8 ± 5.18 nM; β-Arrestin 2 Emax±sem [5]: ∼1 ^a; Ki (delta-opioid receptor [7]; [12]): > 1000 nM; EC50 (human mu receptor; [13]): 30.2 nM |
| Cc1cc(O)cc(C)c1C[C@H](N)C(=O)NC[C@@H](C)C(=O)N[C@@H](Cc1ccccc1)C(=O)N[C@@H](Cc1ccccc1)C(N)=O [analog 7, Dmt-(R)-β ^ 2 -Ala-Phe-Phe-NH2] | 0.51 ± 0.03 | 2.26 ± 0.0717 | 0.31 ± 0.09 | 4.57 | inactive | inactive | 19.1 | 2.33 | 571 ± 55 | 0.692 | 0.95 ± 0.03 | 0.67 (0.49–0.84) | 807 ± 46 | inactive | inactive | – |
| C[C@H](CC(=O)N[C@@H](Cc1ccccc1)C(=O)N[C@@H](Cc1ccccc1)C(N)=O)NC(=O)[C@@H](N)Cc1ccc(O)cc1 [analog 8, Tyr-(R)-β ^ 3 -Ala-Phe-Phe-NH2] (H-Y[d(β3hA)]FF-NH2; N-terminus assumed) | 0.82 ± 0.04 | 1.4 ± 0.065 | 0.44 ± 0.1 | 7.41 | inactive | inactive | 77.6 | 1.71 | > 1000 | 1 | 0.99 ± 0.02 | 0.76 (0.55–0.98) | > 1000 | inactive | inactive | – |
| NC(=O)[C@H](Cc1ccccc1)NC(=O)C[C@@H](Cc1cccc2ccccc12)NC(=O)[C@@H]1CCCN1C(=O)[C@@H](N)Cc1ccc(O)cc1 [analog 12, Tyr-Pro-(R)-β ^ 3 -1-Nal-Phe-NH2] | 1.28 ± 0.05 | 0.898 ± 0.0683 | – | 77.6 | inactive | inactive | 145 | 3.01 | > 1000 | 47.9 | 0.97 ± 0.02 | 0.23 (0.06–0.41) | > 1000 | inactive | inactive | – |
| Cc1cc(O)cc(C)c1C[C@H](N)C(=O)N1CCC[C@H]1C(=O)N[C@@H](CC(=O)N[C@@H](Cc1ccccc1)C(N)=O)Cc1cccc2ccccc12 [analog 13, Dmt-Pro-(R)-β ^ 3 -1-Nal-Phe-NH2] | 1.69 ± 0.07 | 0.68 ± 0.0667 | – | 3.63 | inactive | inactive | 4.37 | 3.16 | – | 3.8 | 0.77 ± 0.02 | 0.27 (0.20–0.34) | – | inactive | inactive | – |
